Laboratory results: paper PMC12116161, “An Elastase Inhibitor ShSPI from Centipede Attenuates Bleomycin-Induced Pulmonary Fibrosis” (Toxins, 2025)
Where a SMILES comes first, the peptide text is derived from it. Bridges are numbered along the chain shown (N, C = ends).

Key:
ICR healthy mice = experiment: Single administration toxicity study: blood biochemistry and electrolytes; assay type: in vivo; conditions: single airway spray, day 14 post-dose, serum, automated biochemistry analyzer, mean ± s
Protocol: Specific pathogen-free (SIPF) grade ICR healthy mice (with an equal number of males and females, procured from Hunan Slaughter King Laboratory Animal Co., Changsha, China) were randomly divided into four experimental groups and received ShSPI via airway spray at doses of 0 mg/kg (control), 40 mg/kg, 80 mg/kg, or 160 mg/kg in a single administration. Following treatment, the mice were monitored for a 14-day observation period. On the fourteenth day, blood plasma samples were collected for precise measurement and analysis of hematological and biochemical parameters. The specific process is as follows.
On day 14 post-dose, approximately 1.7–2.0 mL of whole blood was collected for hematological and biochemical analyses. Hematological parameters were assessed using an automated hematology analyzer, while biochemical parameters were evaluated with an automated biochemistry analyzer. Prior to blood collection, all mice were fasted for at least 12 h. For hematological analysis, 200 μL of whole blood was immediately transferred into EDTA-containing tubes. For biochemical analysis, 1.5 mL of whole blood was placed into serum separator tubes without anticoagulant and centrifuged to isolate serum.

[1] = system: BLM-induced idiopathic pulmonary fibrosis (IPF) mouse model; experiment: Body weight changes in BLM-induced IPF mouse model; assay type: in vivo, ICR mice; conditions: tracheal spray once daily for 7 days, BLM-induced IPF mice
Protocol: (§1) Animal Model Preparation: The peptide powder was dissolved in pre-cooled saline and filtered to remove bacteria, then a spray needle was attached to a micro-syringe to aspirate the peptide solution. A total of 56 ICR mice were anesthetized by intramuscular injection of avertin. After anesthesia, the mice were fixed supine, the tongue was gently pulled, the vocal folds were exposed with a laryngoscope, the trachea was gently inserted, and the nebulized solution was rapidly pushed and injected. Each mouse was administered 100 μL of a 0.4 mg/mL bleomycin solution via tracheal spray, with the treatment performed once. Seven days after modeling, the mice were randomly grouped for ShSPI treatment based on weight loss scores. An additional 8 mice received the vehicle (normal saline) and were designated as the sham group.
(§2) A total of 48 suitable mice were randomly divided into five groups: the model control group (MC), the positive control group (PC), and the ShSPI low-dose groups (1 mg/kg), medium-dose groups (2 mg/kg), and high-dose groups (4 mg/kg).
Drug Administration: Starting on day 7 post-modeling, ShSPI peptide treatment groups were anesthetized with intramuscular avertin and received tracheal spray administration of the peptide. […]
Body Weight Monitoring: The body weight of the mice was monitored and recorded from the modeling phase to the end of treatment (a total of two weeks).

[2] = system: MCP-1, IL-6, IL-1β, IFN-γ, IL-10, TGF-β mRNA in lung tissue; experiment: RT-qPCR of inflammatory factor mRNA in lung tissue of IPF mice; assay type: in vivo, ICR mice; conditions: tracheal spray once daily for 7 days, BLM-induced IPF mice
Protocol: as §1, §2
Drug Administration: Starting on day 7 post-modeling, ShSPI peptide treatment groups were anesthetized with intramuscular avertin and received tracheal spray administration of the peptide. The low-dose group was treated with 1 mg/kg ShSPI peptide, the medium-dose group with 2 mg/kg, and the high-dose group with 4 mg/kg. The positive control group, without anesthesia, received 200 mg/kg pirfenidone (IPFD) via oral gavage. All groups were treated once daily for seven consecutive days.
The left lobe of the lung was collected from each mouse for total RNA extraction using RNAiso Plus, following the manufacturer’s instructions. The extracted RNA was quantified using a UV spectrophotometer. One microgram of total RNA was reverse transcribed into cDNA using a first-strand cDNA synthesis kit, following the provided protocol. Quantitative PCR (qPCR) was performed on a QuantStudio system using 2× SYBR Green qPCR Master Mix, and β-actin served as the internal control. The PCR reaction utilized a two-step protocol: 95 °C for 15 s, followed by 60 °C for 60 s, repeated for 40 cycles. Gene expression levels were calculated using the 2^−ΔΔCt method.

[3] = 40 mg/kg ShSPI, n = 6, * p < 0.05 vs blank control
[4] = 80 mg/kg ShSPI, n = 6, * p < 0.05 vs blank control

With `CC[C@H](C)[C@@H]1NC(=O)[C@H](C)NC(=O)[C@@H]2CCCN2C(=O)[C@@H]2CSSC[C@H](NC(=O)[C@H](CO)NC(=O)[C@H](CC(N)=O)NC(=O)[C@H](CO)NC(=O)[C@H](Cc3ccc(O)cc3)NC(=O)[C@H](CCSC)NC(=O)[C@H](CCCNC(=N)N)NC(=O)CNC(=O)[C@H](Cc3ccccc3)NC(=O)[C@H](CCC(=O)O)NC(=O)[C@H](CC(=O)O)NC(=O)[C@H](Cc3ccccc3)NC(=O)[C@H](C(C)C)NC(=O)[C@@H]3CCCN3C(=O)[C@H](CCC(N)=O)NC(=O)[C@H](Cc3ccc(O)cc3)NC1=O)C(=O)N[C@@H](CCC(=O)O)C(=O)N[C@@H](CCSC)C(=O)N[C@@H](CCC(N)=O)C(=O)N[C@@H](CCCNC(=N)N)C(=O)N[C@@H](C)C(=O)N[C@@H](CCCNC(=N)N)C(=O)N[C@H](C(=O)N[C@@H](CC(C)C)C(=O)N[C@@H](CCCNC(=N)N)C(=O)NCC(=O)O)CSSC[C@H](N)C(=O)N1CCC[C@H]1C(=O)N[C@@H](CCC(N)=O)C(=O)N[C@@H](C(C)C)C(=O)N2` [ShSPI] (H-CPQVCPAIYQPVFDEFGRMYSNSCEMQRARCLRG-OH; disulfide 1-31, 5-24; N-terminus and C-terminus assumed) the ALBII (ICR healthy mice; 40 mg/kg ShSPI, n = 6) was 29.13 ± 1.27 g/L, the ALP (ICR healthy mice; 40 mg/kg ShSPI, n = 6) was 85.25 ± 18.91 U/L and the ALT (ICR healthy mice; 40 mg/kg ShSPI, n = 6) was 44.95 ± 22.02 U/L. For the same molecule, the AST (ICR healthy mice; 40 mg/kg ShSPI, n = 6) was 97.20 ± 13.33 U/L, the CK (ICR healthy mice; 40 mg/kg ShSPI, n = 6) was 236.4 ± 108.76 U/L and the CREA-S (ICR healthy mice; 40 mg/kg ShSPI, n = 6) was 21.70 ± 4.99 µmol/L. The GLO2 (ICR healthy mice; 40 mg/kg ShSPI, n = 6) was 17.67 ± 0.80 g/L, the Glu-G (ICR healthy mice; 40 mg/kg ShSPI, n = 6) was 9.93 ± 1.48 mmol/L and the T-Bil-VII (ICR healthy mice; 40 mg/kg ShSPI, n = 6) was 1.73 ± 0.80 µmol/L. It also gave a TC (ICR healthy mice; 40 mg/kg ShSPI, n = 6) of 2.09 ± 0.33 mmol/L, a TG (ICR healthy mice; 40 mg/kg ShSPI, n = 6) of 1.35 ± 0.50 mmol/L and a TPII (ICR healthy mice; 40 mg/kg ShSPI, n = 6) of 46.81 ± 1.48 g/L. It also gave a UREA (ICR healthy mice; 40 mg/kg ShSPI, n = 6) of 17.07 ± 3.07 mmol/L, a calcium binding (ICR healthy mice; 40 mg/kg ShSPI, n = 6) of 1.23 ± 0.011 mmol/L and a chloride ion (ICR healthy mice; 40 mg/kg ShSPI, n = 6) of 106.80 ± 1.14 mmol/L. It also gave a potassium ion (ICR healthy mice; 40 mg/kg ShSPI, n = 6) of 4.82 ± 0.27 mmol/L, a r-GT (ICR healthy mice; 40 mg/kg ShSPI, n = 6) of 0.38 ± 0.20 U/L and a sodium ion (ICR healthy mice; 40 mg/kg ShSPI, n = 6) of 152.39 ± 1.75 mmol/L. For the same molecule, the calcium ionomer (ICR healthy mice; [3]) was 1.23 ± 0.01 * mmol/L, the total calcium (ICR healthy mice; [3]) was 2.48 ± 0.02 * mmol/L and the ALBII (ICR healthy mice; 80 mg/kg ShSPI, n = 6) was 28.05 ± 1.53 g/L. For the same molecule, the ALP (ICR healthy mice; 80 mg/kg ShSPI, n = 6) was 94.75 ± 22.33 U/L, the ALT (ICR healthy mice; 80 mg/kg ShSPI, n = 6) was 38.58 ± 7.12 U/L and the AST (ICR healthy mice; 80 mg/kg ShSPI, n = 6) was 92.95 ± 20.45 U/L. It also gave a CK (ICR healthy mice; 80 mg/kg ShSPI, n = 6) of 175.4 ± 69.9 U/L, a CREA-S (ICR healthy mice; 80 mg/kg ShSPI, n = 6) of 23.10 ± 2.24 µmol/L and a GLO2 (ICR healthy mice; 80 mg/kg ShSPI, n = 6) of 17.21 ± 0.82 g/L. The Glu-G (ICR healthy mice; 80 mg/kg ShSPI, n = 6) was 9.71 ± 1.69 mmol/L, the T-Bil-VII (ICR healthy mice; 80 mg/kg ShSPI, n = 6) was 1.47 ± 0.43 µmol/L and the TC (ICR healthy mice; 80 mg/kg ShSPI, n = 6) was 2.21 ± 0.61 mmol/L. The TG (ICR healthy mice; 80 mg/kg ShSPI, n = 6) was 1.21 ± 0.32 mmol/L, the TPII (ICR healthy mice; 80 mg/kg ShSPI, n = 6) was 45.26 ± 1.62 g/L and the UREA (ICR healthy mice; 80 mg/kg ShSPI, n = 6) was 14.79 ± 3.07 mmol/L. For the same molecule, the calcium binding (ICR healthy mice; 80 mg/kg ShSPI, n = 6) was 1.24 ± 0.05 mmol/L, the chloride ion (ICR healthy mice; 80 mg/kg ShSPI, n = 6) was 106.5 ± 1.26 mmol/L and the potassium ion (ICR healthy mice; 80 mg/kg ShSPI, n = 6) was 5.01 ± 0.46 mmol/L. For the same molecule, the r-GT (ICR healthy mice; 80 mg/kg ShSPI, n = 6) was 0.00 ± 1.01 U/L, the sodium ion (ICR healthy mice; 80 mg/kg ShSPI, n = 6) was 150.7 ± 1.89 mmol/L and the calcium ionomer (ICR healthy mice; [4]) was 1.24 ± 0.05 * mmol/L. For the same molecule, the total calcium (ICR healthy mice; [4]) was 2.49 ± 0.10 * mmol/L, the ALBII (ICR healthy mice; 160 mg/kg ShSPI, n = 6) was 30.1 ± 1.28 g/L and the ALP (ICR healthy mice; 160 mg/kg ShSPI, n = 6) was 98.6 ± 27.17 U/L. For the same molecule, the ALT (ICR healthy mice; 160 mg/kg ShSPI, n = 6) was 39.80 ± 7.79 U/L, the AST (ICR healthy mice; 160 mg/kg ShSPI, n = 6) was 80.6 ± 16.79 U/L and the CK (ICR healthy mice; 160 mg/kg ShSPI, n = 6) was 156.4 ± 75.0 U/L. The CREA-S (ICR healthy mice; 160 mg/kg ShSPI, n = 6) was 19.1 ± 3.98 µmol/L, the GLO2 (ICR healthy mice; 160 mg/kg ShSPI, n = 6) was 18.0 ± 1.06 g/L and the Glu-G (ICR healthy mice; 160 mg/kg ShSPI, n = 6) was 9.24 ± 1.33 mmol/L. The TC (ICR healthy mice; 160 mg/kg ShSPI, n = 6) was 2.26 ± 0.33 mmol/L, the TG (ICR healthy mice; 160 mg/kg ShSPI, n = 6) was 1.23 ± 0.35 mmol/L and the TPII (ICR healthy mice; 160 mg/kg ShSPI, n = 6) was 48.2 ± 1.79 g/L. For the same molecule, the UREA (ICR healthy mice; 160 mg/kg ShSPI, n = 6) was 13.6 ± 4.00 mmol/L, the calcium binding (ICR healthy mice; 160 mg/kg ShSPI, n = 6) was 1.28 ± 0.03 mmol/L and the calcium ionomer (ICR healthy mice; 160 mg/kg ShSPI, n = 6) was 1.28 ± 0.03 mmol/L. It also gave a chloride ion (ICR healthy mice; 160 mg/kg ShSPI, n = 6) of 106.5 ± 1.44 mmol/L, a potassium ion (ICR healthy mice; 160 mg/kg ShSPI, n = 6) of 4.68 ± 0.30 mmol/L and a r-GT (ICR healthy mice; 160 mg/kg ShSPI, n = 6) of 0.31 ± 0.35 U/L. For the same molecule, the sodium ion (ICR healthy mice; 160 mg/kg ShSPI, n = 6) was 152.9 ± 1.60 mmol/L, the total calcium (ICR healthy mice; 160 mg/kg ShSPI, n = 6, * p < 0.05 vs blank control) was 2.5 ± 0.06 * mmol/L and the body weight recovery ([1]; ShSPI low-dose group (1 mg/kg)) was “upward trend, albeit with a slower recovery rate”. The body weight recovery ([1]; ShSPI medium- and high-dose groups (2 and 4 mg/kg)) was “comparable to that of the positive control group”, the “TGF-β mRNA content in mouse lung tissue” value ([2]; ShSPI 1–4 mg/kg) was “no significant impact” and the “mRNA levels of pro-inflammatory cytokines (MCP-1, IL-6, IL-1β, IFN-γ) in lung tissue” value ([2]; ShSPI high dose 4 mg/kg, β-actin control) was “restored these pro-inflammatory cytokine ShSPI mRNA levels to normal”. The “IL-10 mRNA level in lung tissue” value ([2]; ShSPI low dose 1 mg/kg, β-actin control) was “restored the anti-inflammatory cytokine IL-10 mRNA levels to normal”.
